In patent publication US20060069132A1, “Azolecarboxamide herbicides” (priority 2004, published 2006):

Experiments:
Experiment in all cases: Test E pre-/postemergence herbicide test
[1] = tested on: hairy beggarticks; type: in vivo, Bidens radiata; details: Preemergence
Text: Seeds of plant species selected from bipinnate beggarticks (Bidens bipinnata L.), hairy beggarticks (Bidens radiata Thuill.), bermudagrass (Cynodon dactylon (L.) Pers.), Surinam grass (Urochloa decumbens (Staph) R. D. Webster, previously named Brachiaria decumbens Stapf), large crabgrass (Digitaria sanguinalis (L.) Scop.), green foxtail (Setaria viridis (L.) P. Beauv.), goosegrass (Eleusine indica (L.) Gaertn.), johnsongrass (Sorghum halepense (L.) Pers.), kochia (Kochia scoparia (L.) Schrad.), pitted morningglory (Ipomoea lacunosa L.), purple nutsedge (Cyperus rotundus L.), common ragweed (Ambrosia elatior L.), mustard (Brassica nigra (L.) W. D. J. Koch), guineagrass (Panicum maximum Jacq.), dallisgrass (Paspalum dilatatum Poir.), barnyardgrass (Echinochloa crus-galli (L). P. Beauv.), southern sandbur (Cenchrus echinatus L.), common sowthistle (Sonchus oleraceous L.), prickly sida (Sida spinosa L.), Italian ryegrass (Lolium multiflorum Lam.), common purslane (Portulaca oleracea L.), broadleaf signalgrass (Brachiaria platyphylla (Griseb.) Nash), common groundsel (Senecio vulgaris L.), common chickweed (Stellaria media (L.) Vill/Cyr.), tropical spiderwort (Commelina benghalensis L.), annual bluegrass (Poa annua L.), downy bromegrass (Bromus tectorum L.), itchgrass (Rottboellia cochinchinensis (L.) L.f.), quackgrass (Elytrigia repens (L.) Nevski), Canada horseweed (Erigeron Canadensis L.), field bindweed (Convolvulus arvensis L.), spotted spurge (Euphorbia maculata L.), common mallow (Malva sylvestris (=s silvestris) L.), and Russian thistle (Salsola kali L. ssp. Ruthenica (Iljin) Soo) were planted and treated preemergence with test chemicals formulated in a non-phytotoxic solvent mixture which included a surfactant.
At the same time, plants selected from these weed species were treated with postemergence applications of some of the test chemicals formulated in the same manner. Plants ranged in height from 2 to 18 cm (1- to 4-leaf stage) for postemergence treatments. Treated plants and controls were maintained in a greenhouse for 12 to 14 days, after which time all species were compared to controls and visually evaluated. Plant response ratings, summarized in Table E, are based on a scale of 0 to 100 where 0 is no effect and 100 is complete control. A dash (-) response means no test result.

[2] = tested on: prickly sida; type: in vivo, Sida spinosa
Summary of the method: (§1)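 Herbicidal effect scored visually, 0–100 scale, versus controls. Treatments: preemergence on planted seed; postemergence on 2–18 cm seedlings. Greenhouse, 12 to 14 days.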

[3] = tested on: itchgrass; type: in vivo, Rottboellia cochinchinensis
Summary of the method: as §1

[4] = tested on: quackgrass; type: in vivo, Elytrigia repens
Summary of the method: as §1

[5] = tested on: large crabgrass; type: in vivo, Digitaria sanguinalis
Summary of the method: as §1

[6] = tested on: barnyardgrass; type: in vivo, Echinochloa crus-galli
Summary of the method: as §1

[7] = tested on: common sowthistle; type: in vivo, Sonchus oleraceous
Summary of the method: as §1

[8] = tested on: common ragweed; type: in vivo, Ambrosia elatior
Summary of the method: as §1

[9] = tested on: common purslane; type: in vivo, Portulaca oleracea; details: scale 0 to 100
Summary of the method: as §1

[10] = tested on: common groundsel; type: in vivo, Senecio vulgaris; details: scale 0 to 100
Summary of the method: as §1

[11] = tested on: bipinnate beggarticks; type: in vivo, Bidens bipinnata; details: scale 0 to 100
Summary of the method: as §1

[12] = 250 g ai/ha, scale 0 (no effect) to 100 (complete control)
[13] = 375 g ai/ha, scale 0 (no effect) to 100 (complete control)
[14] = 500 g ai/ha, scale 0 (no effect) to 100 (complete control)
[15] = Preemergence, 250 g ai/ha, scale 0 (no effect) to 100 (complete control)
[16] = Preemergence, 375 g ai/ha, scale 0 (no effect) to 100 (complete control)
[17] = Preemergence, 500 g ai/ha, scale 0 (no effect) to 100 (complete control)
[18] = Preemergence, 125 g ai/ha, scale 0 to 100
[19] = Postemergence, 500 g ai/ha, scale 0 to 100
[20] = Postemergence, 250 g ai/ha, scale 0 to 100
[21] = postemergence, 125 g ai/ha, scale 0 to 100
[22] = postemergence, 62 g ai/ha, scale 0 to 100
[23] = Preemergence, 62 g ai/ha, scale 0 to 100

CCc1nn(C(C)(C)C)cc1C(=O)Nc1cc(C(=O)N(C)C)ccn1 [Compound 293]
Plant response rating, Beggarticks, Hairy ([1]; 125 g ai/ha, scale 0 to 100): 100 | Plant response rating, Beggarticks, Hairy [1, 12]: 100 | Plant response rating, Beggarticks, Hairy [1, 13]: 100 | Plant response rating, Beggarticks, Hairy [1, 14]: 100 | Plant response rating, Prickly Sida [2, 15]: 80 | Plant response rating, Prickly Sida [2, 16]: 100 | Plant response rating, Prickly Sida [2, 17]: 100 | Plant response rating, Itchgrass [3, 18]: 10 | Plant response rating, Itchgrass [3, 15]: 90 | Plant response rating, Itchgrass [3, 16]: 100 | Plant response rating, Itchgrass [3, 17]: 100 | Plant response rating, Quackgrass [4, 18]: 70 | Plant response rating, Quackgrass [4, 15]: 80 | Plant response rating, Quackgrass [4, 16]: 95 | Plant response rating, Quackgrass [4, 17]: 95 | Plant response rating, Crabgrass, Large [5, 18]: 95 | Plant response rating, Crabgrass, Large [5, 15]: 95 | Plant response rating, Crabgrass, Large [5, 16]: 100 | Plant response rating, Crabgrass, Large [5, 17]: 100 | Plant response rating, Barnyardgrass [6, 18]: 60 | Plant response rating, Barnyardgrass [6, 15]: 100 | Plant response rating, Barnyardgrass [6, 16]: 100 | Plant response rating, Barnyardgrass [6, 17]: 100 | Plant response rating, Sowthistle [7, 18]: 75 | Plant response rating, Sowthistle [7, 15]: 95 | Plant response rating, Sowthistle [7, 16]: 95 | Plant response rating, Sowthistle [7, 17]: 100 | Plant response rating, Ragweed [8, 18]: 50 | Plant response rating, Ragweed [8, 15]: 70 | Plant response rating, Ragweed [8, 16]: 100 | Plant response rating, Ragweed [8, 17]: 100

CCn1nc(C(C)(C)C)cc1C(=O)Nc1cc(C(=S)N(C)C)ccc1F [Compound 294]
Plant response rating, Purslane ([9]; Postemergence, 500 g ai/ha): 90 | Plant response rating, Purslane ([9]; Postemergence, 250 g ai/ha): 90 | Plant response rating, Purslane ([9]; postemergence, 125 g ai/ha): 60 | Plant response rating, Purslane ([9]; postemergence, 62 g ai/ha): 10 | Plant response rating, Beggarticks, Hairy ([1]; 125 g ai/ha, scale 0 to 100): 100 | Plant response rating, Beggarticks, Hairy [1, 12]: 100 | Plant response rating, Beggarticks, Hairy [1, 13]: 100 | Plant response rating, Beggarticks, Hairy [1, 14]: 100 | Plant response rating, Groundsel ([10]; Postemergence, 250 g ai/ha): 90 | Plant response rating, Groundsel ([10]; postemergence, 62 g ai/ha): 50 | Plant response rating, Prickly Sida [2, 19]: 100 | Plant response rating, Prickly Sida [2, 20]: 80 | Plant response rating, Prickly Sida [2, 18]: 100 | Plant response rating, Prickly Sida [2, 15]: 100 | Plant response rating, Prickly Sida [2, 16]: 100 | Plant response rating, Prickly Sida [2, 17]: 100 | Plant response rating, Prickly Sida [2, 21]: 70 | Plant response rating, Prickly Sida [2, 22]: 50 | Plant response rating, Itchgrass [3, 19]: 80 | Plant response rating, Itchgrass [3, 20]: 75 | Plant response rating, Itchgrass [3, 15]: 75 | Plant response rating, Itchgrass [3, 16]: 95 | Plant response rating, Itchgrass [3, 17]: 100 | Plant response rating, Itchgrass [3, 21]: 70 | Plant response rating, Itchgrass [3, 22]: 50 | Plant response rating, Quackgrass [4, 19]: 85 | Plant response rating, Quackgrass [4, 20]: 85 | Plant response rating, Quackgrass [4, 18]: 80 | Plant response rating, Quackgrass [4, 15]: 80 | Plant response rating, Quackgrass [4, 16]: 95 | Plant response rating, Quackgrass [4, 17]: 95 | Plant response rating, Quackgrass [4, 21]: 80 | Plant response rating, Quackgrass [4, 22]: 60 | Plant response rating, Crabgrass, Large [5, 19]: 80 | Plant response rating, Crabgrass, Large [5, 20]: 75 | Plant response rating, Crabgrass, Large [5, 18]: 75 | Plant response rating, Crabgrass, Large [5, 15]: 95 | Plant response rating, Crabgrass, Large [5, 16]: 100 | Plant response rating, Crabgrass, Large [5, 17]: 100 | Plant response rating, Crabgrass, Large [5, 21]: 70 | Plant response rating, Crabgrass, Large [5, 22]: 40 | Plant response rating, Barnyardgrass [6, 19]: 80 | Plant response rating, Barnyardgrass [6, 20]: 75 | Plant response rating, Barnyardgrass [6, 18]: 95 | Plant response rating, Barnyardgrass [6, 15]: 95 | Plant response rating, Barnyardgrass [6, 16]: 100 | Plant response rating, Barnyardgrass [6, 17]: 100 | Plant response rating, Barnyardgrass [6, 21]: 60 | Plant response rating, Barnyardgrass [6, 22]: 40 | Plant response rating, Sowthistle [7, 19]: 80 | Plant response rating, Sowthistle [7, 18]: 80 | Plant response rating, Sowthistle [7, 15]: 95 | Plant response rating, Sowthistle [7, 16]: 100 | Plant response rating, Sowthistle [7, 17]: 100 | Plant response rating, Sowthistle [7, 21]: 60 | Plant response rating, Sowthistle [7, 22]: 60 | Plant response rating, Beggarticks, Bip. ([11]; Postemergence, 500 g ai/ha): 75 | Plant response rating, Beggarticks, Bip. ([11]; Postemergence, 250 g ai/ha): 70 | Plant response rating, Beggarticks, Bip. ([11]; postemergence, 125 g ai/ha): 60 | Plant response rating, Beggarticks, Bip. ([11]; postemergence, 62 g ai/ha): 40 | Plant response rating, Ragweed [8, 19]: 80 | Plant response rating, Ragweed [8, 20]: 70 | Plant response rating, Ragweed [8, 18]: 75 | Plant response rating, Ragweed [8, 15]: 85 | Plant response rating, Ragweed [8, 16]: 100 | Plant response rating, Ragweed [8, 17]: 100 | Plant response rating, Ragweed [8, 21]: 60 | Plant response rating, Ragweed [8, 22]: 30

CCn1nc(C2(C)CC2)cc1C(=O)Nc1cc(C(=O)N(C)C)ccc1F [Compound 299]
Plant response rating, Purslane ([9]; Postemergence, 500 g ai/ha): 100 | Plant response rating, Purslane ([9]; Postemergence, 250 g ai/ha): 80 | Plant response rating, Purslane ([9]; postemergence, 125 g ai/ha): 75 | Plant response rating, Purslane ([9]; postemergence, 62 g ai/ha): 70 | Plant response rating, Beggarticks, Hairy ([1]; 62 g ai/ha, scale 0 to 100): 50 | Plant response rating, Beggarticks, Hairy ([1]; 125 g ai/ha, scale 0 to 100): 100 | Plant response rating, Beggarticks, Hairy [1, 12]: 100 | Plant response rating, Beggarticks, Hairy [1, 14]: 100 | Plant response rating, Groundsel ([10]; Postemergence, 250 g ai/ha): 100 | Plant response rating, Groundsel ([10]; postemergence, 125 g ai/ha): 70 | Plant response rating, Prickly Sida [2, 19]: 95 | Plant response rating, Prickly Sida [2, 20]: 95 | Plant response rating, Prickly Sida [2, 23]: 85 | Plant response rating, Prickly Sida [2, 18]: 85 | Plant response rating, Prickly Sida [2, 15]: 100 | Plant response rating, Prickly Sida [2, 17]: 100 | Plant response rating, Prickly Sida [2, 21]: 95 | Plant response rating, Prickly Sida [2, 22]: 60 | Plant response rating, Itchgrass [3, 19]: 80 | Plant response rating, Itchgrass [3, 20]: 75 | Plant response rating, Itchgrass [3, 23]: 60 | Plant response rating, Itchgrass [3, 18]: 75 | Plant response rating, Itchgrass [3, 15]: 90 | Plant response rating, Itchgrass [3, 17]: 100 | Plant response rating, Itchgrass [3, 21]: 70 | Plant response rating, Itchgrass [3, 22]: 30 | Plant response rating, Quackgrass [4, 19]: 100 | Plant response rating, Quackgrass [4, 20]: 85 | Plant response rating, Quackgrass [4, 23]: 80 | Plant response rating, Quackgrass [4, 18]: 80 | Plant response rating, Quackgrass [4, 15]: 95 | Plant response rating, Quackgrass [4, 17]: 100 | Plant response rating, Quackgrass [4, 21]: 75 | Plant response rating, Quackgrass [4, 22]: 20 | Plant response rating, Crabgrass, Large [5, 19]: 95 | Plant response rating, Crabgrass, Large [5, 20]: 95 | Plant response rating, Crabgrass, Large [5, 23]: 90 | Plant response rating, Crabgrass, Large [5, 18]: 100 | Plant response rating, Crabgrass, Large [5, 15]: 100 | Plant response rating, Crabgrass, Large [5, 17]: 100 | Plant response rating, Crabgrass, Large [5, 21]: 85 | Plant response rating, Crabgrass, Large [5, 22]: 75 | Plant response rating, Barnyardgrass [6, 19]: 80 | Plant response rating, Barnyardgrass [6, 20]: 70 | Plant response rating, Barnyardgrass [6, 23]: 60 | Plant response rating, Barnyardgrass [6, 18]: 85 | Plant response rating, Barnyardgrass [6, 15]: 95 | Plant response rating, Barnyardgrass [6, 17]: 100 | Plant response rating, Barnyardgrass [6, 21]: 70 | Plant response rating, Barnyardgrass [6, 22]: 40 | Plant response rating, Sowthistle [7, 20]: 95 | Plant response rating, Sowthistle [7, 23]: 100 | Plant response rating, Sowthistle [7, 18]: 100 | Plant response rating, Sowthistle [7, 15]: 100 | Plant response rating, Sowthistle [7, 17]: 95 | Plant response rating, Sowthistle [7, 21]: 85 | Plant response rating, Sowthistle [7, 22]: 30 | Plant response rating, Beggarticks, Bip. ([11]; Postemergence, 500 g ai/ha): 80 | Plant response rating, Beggarticks, Bip. ([11]; Postemergence, 250 g ai/ha): 60 | Plant response rating, Beggarticks, Bip. ([11]; postemergence, 125 g ai/ha): 60 | Plant response rating, Beggarticks, Bip. ([11]; postemergence, 62 g ai/ha): 40 | Plant response rating, Ragweed [8, 19]: 90 | Plant response rating, Ragweed [8, 20]: 70 | Plant response rating, Ragweed [8, 23]: 20 | Plant response rating, Ragweed [8, 18]: 85 | Plant response rating, Ragweed [8, 15]: 90 | Plant response rating, Ragweed [8, 17]: 100 | Plant response rating, Ragweed [8, 21]: 60 | Plant response rating, Ragweed [8, 22]: 30
